Test results from patent US8518956B2, “1-(1-(2-ethoxyethyl)-3-ethyl-7-(4-methylpyridin-2-ylamino)-1H-pyrazolo[4,3-d]pyrimidin-5-yl) piperidine-4-carboxylic acid and salts thereof” (priority 2005, dated 2013).

Molecular target: T1, PDE5 enzyme (Homo sapiens, UniProt O76074)
T1 construct: The PDE5 enzyme isolated from human platelets; from tissue; host or cells: human platelets
Assay: Method 1: Human Platelet PDE5 Enzyme Inhibition Scintillation Proximity Assay
Format: biochemical
Conditions: METHOD 1: PDE5 IC50, Table B, WO2004096810 examples
Source text: Method 1: Human Platelet PDE5 Enzyme Inhibition Scintillation Proximity Assay
An in vitro assay can be used to evaluate the inhibition of PDE5 enzyme activity by a test compound.
The PDE5 enzyme for use in the assay can be obtained from human platelets by appropriate modification of the method of Thompson, W J et al.; Biochemistry 18(23), 5228-5237, 1979, as described by Ballard S A et al.; J. Urology 159(6), 2164-2171, 1998. The PDE5 enzyme isolated from human platelets can be used to catalyze the hydrolysis of [^3H]cGMP (Amersham Biosciences) to 5′ nucleotide [^3H]GMP. The [^3H]GMP binds to yttrium silicate SPA beads (Amersham Biosciences) and is detected by scintillation counting. More specifically, the effect of the test compound at different concentrations can be evaluated in the assay by contacting the compound with a fixed amount of PDE5 enzyme in the presence of substrate (cGMP or cAMP in a 3:1 ratio unlabelled to [^3H]-labeled). Scintillation counting can be used as described above to determine relative PDE5 enzyme activity. The inhibition of PDE5 enzyme activity is then calculated relative to total PDE5 enzyme activity of uninhibited controls.
PDE5 IC50 Assay: 96-well microtiter plate format
• Buffer A: 20 mM Tris-HCl, 5 mM MgCl2, pH 7.4 • Buffer B: 2 mg/ml BSA in Buffer A (enzyme buffer) • cGMP substrate: Final concentration of 500 nM in assay The amount of ^3H-labeled substrate added depends upon the specific activity of [^3H]cGMP, and the cGMP substrate is diluted with a 10 mM stock of cold cGMP in Buffer A for a final substrate concentration of 500 nM in the assay. • PDE enzyme: Prepared in Buffer B. The dilution factor is determined by enzyme activity. • SPA beads: 20 mg/ml suspension prepared in dH2O.
Stocks of standard and test compounds are prepared at 5 mM in 100% DMSO. The compound is serially diluted in a dilution plate using a 10-point ½ log dilution format. 2 μl of the compound dilution is added in duplicate to the wells of the assay plate. 2 μl of 100% DMSO are added to designated control wells. 25 μl of Buffer A are added to all wells. 25 μl of Buffer B are added to the negative control wells. 25 μl of enzyme are added to the remaining wells. 50 μl of substrate are added to each well. Plates are sealed and incubated for 60 minutes on a plate shaker at 30 C. 50 plof SPA beads are added to stop the reaction. The plates are again sealed and shaken for 15 minutes to allow the beads to bind the GMP product. The beads are allowed to settle for 30 minutes and then read on a NXT TopCount scintillation counter. Data are analyzed with a curve fitting application for plate-based screening. Percent inhibition in this assay is calculated as follows: Inhibition (%)=[(mean maximum−compound value/(mean maximum−mean minimum)]×100.
The IC50 value is determined from sigmoid dose-response curves of enzyme activity versus compound concentration.

CCOCCn1nc(C)c2nc(N(C)[C@@H]3CCN(C)C3)nc(Nc3ccncn3)c21 [WO2004096810 Example 157]
IC50: 16.7 nM

CCOCCn1nc(CC)c2nc(N3CCN[C@H](CC)C3)nc(Nc3ccncn3)c21 [WO2004096810 Example 19]
IC50: 0.49 nM

CCOCCn1nc(C)c2nc(N(C)CCOC)nc(Nc3ccnc(C)n3)c21 [WO2004096810 Example 219]
IC50: 41 nM

CCOCCn1nc(C)c2nc(N3CCN[C@H](C)C3)nc(Nc3cccc(OC)n3)c21 [WO2004096810 Example 196]
IC50: 0.56 nM

COCCn1nc(C)c2nc(N(C)[C@@H]3CCN(C)C3)nc(Nc3cc(C)ccn3)c21 [WO2004096810 Example 155]
IC50: 13.4 nM

CCOCCn1nc(CO)c2nc(N3C[C@@H]4C[C@H]3CN4)nc(Nc3cc(C)ccn3)c21 [WO2004096810 Example 229]
IC50: 1.61 nM

COCCCn1nc(C)c2nc(NCCO)nc(Nc3cc(C)ccn3)c21 [WO2004096810 Example 96]
IC50: 87.9 nM

CCOCCn1nc(C)c2nc(N3CCN[C@H](C)C3)nc(Nc3ccc(=O)n(C)c3)c21 [WO2004096810 Example 201]
IC50: 25.9 nM

CCOCCn1nc(C)c2nc(N3CCN[C@H](C)C3)nc(Nc3ccc(OC)cn3)c21 [WO2004096810 Example 195]
IC50: 0.96 nM

CCOCCn1nc(C)c2nc(N(C)[C@@H]3CCN(C)C3)nc(Nc3cc(C)ccn3)c21 [WO2004096810 Example 156]
IC50: 1.8 nM

CCc1nn(CCOC)c2c(Nc3cc(C)ccn3)nc(NC[C@@H]3CCCN3)nc12 [WO2004096810 Example 98]
IC50: 231 nM

CCOCCn1nc(C)c2nc(N3C[C@@H]4C[C@H]3CN4)nc(Nc3cnc(C)c(C)c3)c21 [WO2004096810 Example 233]
IC50: 3.85 nM

CCOCCn1nc(C)c2nc(N(C)CCOC)nc(Nc3cc(C)ccn3)c21 [WO2004096810 Example 207]
IC50: 1.55 nM

COCCNc1nc(Nc2cc(C)ccn2)c2c(n1)c(C)nn2CCOC [WO2004096810 Example 93]
IC50: 31.1 nM

CCOCCn1nc(CC)c2nc(N3CCN[C@H](C)C3)nc(Nc3ccncn3)c21 [WO2004096810 Example 15]
IC50: 0.09 nM

CCOCCn1nc(C)c2nc(N3CCN[C@H](C)C3)nc(Nc3ccnc(C)n3)c21 [WO2004096810 Example 220]
IC50: 3.6 nM

COCCn1nc(C)c2nc(N3C[C@@H](C)NC[C@@H]3C)nc(Nc3ccc(C)cn3)c21 [WO2004096810 Example 143]
IC50: 81.2 nM

Cc1nn(C(C)C)c2c(Nc3ccncn3)nc(N3CCN[C@H](C)C3)nc12 [WO2004096810 Example 24]
IC50: 37.7 nM

CCOCCn1nc(C)c2nc(N3CCN[C@@H](C)C3)nc(Nc3ccncn3)c21 [WO2004096810 Example 12]
IC50: 1.74 nM

Cc1ccnc(Nc2nc(N3CCNCC3)nc3c(C)nn(CC4CCCCO4)c23)c1 (stereo not shown) [WO2004096810 Example 168]
IC50: 0.81 nM

CCCc1nn(C)c2c(N[C@H]3CC[C@H](O)CC3)nc(N3CCNCC3)nc12 [WO2004096810 Example 126]
IC50: 2230 nM

CCOCCn1nc(CC)c2nc(N(C)[C@@H]3CCN(C)C3)nc(Nc3ccncn3)c21 [WO2004096810 Example 160]
IC50: 7.22 nM

CCOCCn1nc(CC)c2nc(N3C[C@@H](C)NC[C@@H]3C)nc(Nc3ccc(C)cn3)c21 [WO2004096810 Example 149]
IC50: 34.8 nM

CCOCCn1nc(C)c2nc(N3C[C@@H](C)NC[C@@H]3C)nc(Nc3cc(C)ccn3)c21 [WO2004096810 Example 145]
IC50: 7.15 nM

CCOCCn1nc(C)c2nc(N3CCN[C@@H](C(C)C)C3)nc(Nc3ccncn3)c21 [WO2004096810 Example 14]
IC50: 42.1 nM

CCOCCn1nc(COC)c2nc(N(C)C)nc(Nc3cc(C)ccn3)c21 [WO2004096810 Example 185]
IC50: 1.3 nM

CCOCCn1nc(C)c2nc(N3C[C@@H]4C[C@H]3CN4C)nc(Nc3cc(C)ccn3)c21 [WO2004096810 Example 206]
IC50: 6.09 nM

CCOCCn1nc(C)c2nc(N3CCN[C@H](C)C3)nc(Nc3cc(C)cc(C)n3)c21 [WO2004096810 Example 198]
IC50: 10 nM

CCCc1nn(C)c2c(NC3CCC(OC)CC3)nc(N3CCNCC3)nc12 (stereo not shown) [WO2004096810 Example 127]
IC50: 7580 nM

CCOCCn1nc(C)c2nc(N(C)CCN(C)C)nc(Nc3ccncn3)c21 [WO2004096810 Example 216]
IC50: 60.9 nM

CCCc1nn(C)c2c(Nc3ccc(C)cn3)nc(NC3CNC3)nc12 [WO2004096810 Example 37]
IC50: > 10000 nM

CCOCCn1nc(COC)c2nc(N3CC4CCC(C3)N4)nc(Nc3cc(C)ccn3)c21 [WO2004096810 Example 242]
IC50: 0.62 nM

CCOCCn1nc(C)c2nc(N3C[C@H](C)NC[C@H]3C)nc(Nc3ccc(C)cn3)c21 [WO2004096810 Example 137]
IC50: 1.43 nM

CCOCCn1nc(C)c2nc(N3C[C@H](C)NC[C@H]3C)nc(Nc3cc(C)ccn3)c21 [WO2004096810 Example 136]
IC50: 1.09 nM

CCCc1nn(C)c2c(Nc3cc(C)cc(C)n3)nc(N3CCNCC3)nc12 [WO2004096810 Example 125]
IC50: 182 nM

COCCCn1nc(C)c2nc(N3CC[C@@H](O)C3)nc(Nc3cc(C)ccn3)c21 [WO2004096810 Example 100]
IC50: 67.2 nM

CCOCCn1nc(CC)c2nc(N(C)C3CCN(C)CC3)nc(Nc3ccncn3)c21 [compound 2]
IC50: 0.48 nM

CCCc1nn(C)c2c(Nc3cccc(C(=O)NC)n3)nc(N3CCNCC3)nc12 [WO2004096810 Example 128]
IC50: 1390 nM

CCc1nn(CCOC)c2c(Nc3ccc(F)cn3)nc(NCCOC)nc12 [WO2004096810 Example 110]
IC50: 513 nM

CCc1nn(CCOC)c2c(Nc3cc(C)ccn3)nc(NCCn3cccn3)nc12 [WO2004096810 Example 153]
IC50: 19.5 nM

CCCc1nn(C)c2c(Nc3cc(C)ccn3)nc(N3CCN[C@H](C)C3)nc12 [WO2004096810 Example 40]
IC50: 334 nM

CCOCCn1nc(CC)c2nc(N3C[C@H](C)NC[C@H]3C)nc(Nc3cc(C)ccn3)c21 [WO2004096810 Example 139]
IC50: 0.55 nM

CCOCCn1nc(C)c2nc(N3CCN[C@H](C)C3)nc(Nc3ccc(OC)nc3)c21 [WO2004096810 Example 194]
IC50: 0.56 nM

CCc1nn(CCOC)c2c(Nc3cc(C)n[nH]3)nc(N3CCNCC3)nc12 [WO2004096810 Example 180]
IC50: 341 nM

CCOCCn1nc(CC)c2nc(N(C)[C@@H]3CCN(C)C3)nc(Nc3ccc(C)cn3)c21 [WO2004096810 Example 159]
IC50: 16.3 nM

CCOCCn1nc(C)c2nc(N3CC4C[C@@H]3CN4)nc(Nc3cc(C)ccn3)c21 [WO2004096810 Example 244]
IC50: 2.54 nM

CCOCCn1nc(C)c2nc(N3CC4CCC3CN4)nc(Nc3cc(C)ccn3)c21 (stereo not shown) [WO2004096810 Example 237]
IC50: 0.67 nM

Cc1ccnc(Nc2nc(N3CCNCC3)nc3c(C)n(Cc4ccccn4)nc23)c1 [WO2004096810 Example 176]
IC50: 274 nM

Cc1ccnc(Nc2nc(N3CCNCC3)nc3c(C)nn(CC(F)(F)F)c23)c1 [WO2004096810 Example 170]
IC50: 2100 nM

CCOCCn1nc(CC)c2nc(N3CC(N)C3)nc(Nc3ccncn3)c21 [WO2004096810 Example 3]
IC50: 43.8 nM

CCCc1nn(C)c2c(Nc3cc(C)ccn3)nc(NCCOC)nc12 [WO2004096810 Example 72]
IC50: 177 nM

CCc1nn(CCOC)c2c(Nc3ccccn3)nc(N(C)CCO)nc12 [WO2004096810 Example 109]
IC50: 27.3 nM

CCOCCn1nc(C)c2nc(N3C[C@@H]4C[C@H]3CN4)nc(Nc3ccc(C)cn3)c21 [WO2004096810 Example 240]
IC50: > 100 nM

CCCc1nn(C)c2c(NC3CCCCC3)nc(N3CCNCC3)nc12 [WO2004096810 Example 124]
IC50: 78.2 nM

CCOCCn1nc(C)c2nc(N3CCN[C@H](C)C3)nc(Nc3ccncn3)c21 [WO2004096810 Example 11]
IC50: 0.29 nM

CCCc1nn(C)c2c(Nc3ccc(CC)cn3)nc(N3CCNCC3)nc12 [WO2004096810 Example 123]
IC50: 248 nM

CCOCCn1nc(C)c2nc(N(C)CC)nc(Nc3ccc(=O)n(C)c3)c21 [WO2004096810 Example 203]
IC50: 0.63 nM

CCCc1nn(C)c2c(Nc3ccc(C)cn3)nc(N(C)C3CNC3)nc12 [WO2004096810 Example 38]
IC50: > 10000 nM
